# Test results published in patent US5543415A, “Antidepressants” (Kyowa Hakko Kogyo Co., Ltd., priority 1992, dated 1996).
# Tested on: ddY-strain male mice
# Assay: Acute Toxicity Test (minimum lethal dose, oral)
# Type: in vivo
# Details: seven days after administration
# Protocol: Test compounds were orally administered to groups of ddY-strain male mice weighing 20±1 g, each group consisting of three mice. Seven days after the administration, minimum lethal dose (MLD) of each compound was determined by observing the mortality.
row,SMILES,MLD (minimum lethal dose) [mg/kg]
1,"CCn1c(=O)c2[nH]c(/C=C/c3ccc(OC)c(OC)c3Cl)nc2n(CC)c1=O [Compound 105, (E)-8-(2-Chloro-3,4-dimethoxystyryl)-1,3-diethylxanthine]",> 100
2,"CCCn1c(=O)c2nc(/C=C/c3cccc(F)c3)[nH]c2n(CCC)c1=O [Compound 37, (E)-8-(3-Fluorostyryl)-1,3-dipropylxanthine]",> 100
3,"CCn1c(=O)c2c(nc(/C=C/c3cccc(OC)c3OC)n2C)n(CC)c1=O [Compound 76, (E)-8-(2,3-Dimethoxystyryl)-1,3-diethyl-7-methylxanthine]",> 300
4,"CCCn1c(=O)c2c(nc(/C=C/c3ccc(OCOC)c(OCOC)c3)n2C)n(CCC)c1=O [Compound 68, (E)-8-[3,4-Bis(methoxymethoxy)styryl]-7-methyl-1,3-dipropylxanthine]",> 100
5,"C=CCn1c(=O)c2nc(/C=C/c3cc(OC)c(OC)c(OC)c3)[nH]c2n(CC=C)c1=O [Compound 12, (E)-1,3-diallyl-8-(3,4,5-trimethoxystyryl)xanthine]",> 300
6,"CCCn1c(=O)c2c(nc(/C=C/c3cccc(F)c3)n2C)n(CCC)c1=O [Compound 38, (E)-8-(3-Fluorostyryl)-7-methyl-1,3-dipropylxanthine]",> 300
7,"CCCn1c(=O)c2[nH]c(/C=C/c3ccc(OCC)cc3)nc2n(CCC)c1=O [Compound 48, (E)-8-(4-Ethoxystyryl)-1,3-dipropylxanthine]",> 100
8,"CCOc1ccc(/C=C/c2nc3c([nH]2)c(=O)n(CC)c(=O)n3CC)cc1 [Compound 123, (E)-8-(4-Ethoxystyryl)-1,3-diethylxanthine]",> 100
9,"COc1ccc(/C=C/c2nc3c(c(=O)n(C)c(=O)n3C)n2C)c(OC)c1 [Compound 100, (E)-8-(2,4-Dimethoxystyryl)caffeine]",> 300
10,"COc1cccc(/C=C/c2nc3c(c(=O)n(C)c(=O)n3C)n2C)c1OC [Compound 98, (E)-8-(2,3-Dimethoxystyryl)caffeine]",> 300
11,"Cn1c(=O)c2[nH]c(/C=C/c3ccc4c(c3)OCO4)nc2n(C)c1=O [Compound 95, (E)-8-(3,4-Methylenedioxystyryl)theophylline]",> 300
12,"CCn1c(=O)c2[nH]c(/C=C/c3ccc(OC)c(Br)c3)nc2n(CC)c1=O [Compound 113, (E)-8-(3-Bromo-4-methoxystyryl)-1,3-diethylxanthine]",> 100
13,"CCCn1c(=O)c2c(nc(/C=C/c3ccccc3F)n2C)n(CCC)c1=O [Compound 44, (E)-8-(2-Fluorostyryl)-7-methyl-1,3-dipropylxanthine]",> 100
14,"CCn1c(=O)c2c(nc(/C=C/c3ccc(OCCCCN)cc3)n2C)n(CC)c1=O [Compound 188, (E)-8-[4-(4-Aminobutoxy)styryl]-1,3-diethyl-7-methylxanthine]",> 100
15,"COc1ccc(/C=C/c2nc3c([nH]2)c(=O)n(C)c(=O)n3C)c(OC)c1 [Compound 99, (E)-8-(2,4-Dimethoxystyryl)theophylline]",> 100
16,"COc1ccc(/C=C/c2nc3c(c(=O)n(C)c(=O)n3C)n2C)cc1Br [Compound 116, (E)-8-(3-Bromo-4-methoxystyryl)caffeine]",> 300
17,"CCCn1c(=O)c2[nH]c(/C=C/c3ccccc3Cl)nc2n(CCC)c1=O [Compound 41, (E)-8-(2-Chlorostyryl)-1,3-dipropylxanthine]",> 100
18,"CCCn1c(=O)c2c(nc(/C=C/c3cc(OC)cc(OC)c3)n2C)n(CCC)c1=O [Compound 34, (E)-8-(3,5-Dimethoxystyryl)-7-methyl-1,3-dipropylxanthine]",> 300
19,"COc1cccc(/C=C/c2nc3c(=O)n(C)c(=O)n(C)c3[nH]2)c1OC [Compound 97, (E)-8-(2,3-Dimethoxystyryl)theophylline]",> 100
20,"COc1cc(C)c(/C=C/c2nc3c([nH]2)c(=O)n(C)c(=O)n3C)cc1C [Compound 101, (E)-8-(4-Methoxy-2,5-dimethylstyryl)theophylline]",> 100
21,"CCn1c(=O)c2[nH]c(/C=C/c3ccc(OC)c(OC)c3OC)nc2n(CC)c1=O [Compound 79, (E)-1,3-Diethyl-8-(2,3,4-trimethoxystyryl)xanthine]",> 300
22,"CCCn1c(=O)c2[nH]c(/C=C/c3cc(OC)c(OC)cc3Br)nc2n(CCC)c1=O [Compound 58, (E)-8-(2-Bromo-4,5-dimethoxystyryl)-1,3-dipropylxanthine]",> 300
23,"CCn1c(=O)c2[nH]c(/C=C/c3ccc(OC)cc3OC)nc2n(CC)c1=O [Compound 77, (E)-8-(2,4-Dimethoxystyryl)-1,3-diethylxanthine]",> 100

row,SMILES,MLD (minimum lethal dose) [mg/kg]
1,"CCn1c(=O)c2c(nc(/C=C/c3ccc(OC)c(C)c3OC)n2C)n(CC)c1=O [Compound 86, (E)-8-(2,4-Dimethoxy-3-methylstyryl)-1,3-diethyl-7-methylxanthine]",> 300
2,"CCCn1c(=O)c2[nH]c(/C=C/c3ccc4c(c3)OCO4)nc2n(CCC)c1=O [Compound 19, (E)-8-(3,4-Methylenedioxystyryl)-1,3-dipropylxanthine]",> 300
3,"CCn1c(=O)c2c(nc(/C=C/c3ccc(Br)cc3)n2C)n(CC)c1=O [Compound 142, (E)-8-(4-Bromostyryl)-1,3-diethyl-7-methylxanthine]",> 100
4,"CCn1c(=O)c2[nH]c(/C=C/c3cc(C(F)(F)F)cc(C(F)(F)F)c3)nc2n(CC)c1=O [Compound 153, (E)-8-[3,5-Bis(trifluoromethyl)styryl]-1,3-diethylxanthine]",> 100
5,"CCCCn1c(=O)c2nc(/C=C/c3cc(OC)c(OC)c(OC)c3)[nH]c2n(CCCC)c1=O [Compound 8, (E)-1,3-Dibutyl-8-(3,4,5-trimethoxystyryl)xanthine]",> 100
6,"CCCn1c(=O)c2c(nc(/C=C/c3cccc(OC)c3OC)n2C)n(CCC)c1=O [Compound 30, (E)-8-(2,3-Dimethoxystyryl)-7-methyl-1,3-dipropylxanthine]",> 300
7,"CCCn1c(=O)c2nc(/C=C/c3cc(OC)c(OC)cc3OC)[nH]c2n(CCC)c1=O [Compound 23, (E)-1,3-Dipropyl-8-(2,4,5-trimethoxystyryl)xanthine]",> 300
8,"COc1ccc(/C=C/c2nc3c([nH]2)c(=O)n(C)c(=O)n3C)cc1Br [Compound 115, (E)-8-(3-Bromo-4-methoxystyryl)theophylline]",> 100
9,"CCn1c(=O)c2[nH]c(/C=C/c3cccc(Oc4ccccc4)c3)nc2n(CC)c1=O [Compound 191, (E)-1,3-Diethyl-8-(3-phenoxystyryl)xanthine]",> 100
10,"CCn1c(=O)c2c(nc(/C=C/c3ccc(C(F)(F)F)cc3)n2C)n(CC)c1=O [Compound 136, (E)-1,3-Diethyl-7-methyl-8-(4-trifluoromethylstyryl)xanthine]",> 300
11,"CCn1c(=O)c2[nH]c(/C=C/c3ccc(C)cc3)nc2n(CC)c1=O [Compound 151, (E)-1,3-Diethyl-8-(4-methylstyryl)xanthine]",> 100
12,"CCn1c(=O)c2c(nc(/C=C/c3ccc(OCCCCBr)cc3)n2C)n(CC)c1=O [Compound 186, (E)-8-[4-(4-Bromobutoxy)styryl]-1,3-diethyl-7-methylxanthine]",> 100
13,"COc1ccc(/C=C/c2nc3c([nH]2)c(=O)n(C)c(=O)n3C)c(OC)c1C [Compound 103, (E)-8-(2,4-Dimethoxy-3-methylstyryl)theophylline]",> 100
14,"CCn1c(=O)c2c(nc(/C=C/c3ccc(OC)c(O)c3)n2C)n(CC)c1=O [Compound 183, (E)-1,3-Diethyl-8-(3-hydroxy-4-methoxystyryl)-7-methylxanthine]",> 100
15,"CCCn1c(=O)c2c(nc(/C=C/c3cc(C)c(OC)cc3C)n2C)n(CCC)c1=O [Compound 46, (E)-8-(4-Methoxy-2,5-dimethylstyryl)-7-methyl-1,3-dipropylxanthine]",> 300
16,"CCn1c(=O)c2c(nc(/C=C/c3ccc(F)c(Cl)c3)n2C)n(CC)c1=O [Compound 177, (E)-8-(3-Chloro-4-fluorostyryl)-1,3-diethyl-7-methylxanthine]",> 100
17,"CCn1c(=O)c2[nH]c(/C=C/c3ccc(OCOC)cc3)nc2n(CC)c1=O [Compound 145, (E)-1,3-Diethyl-8-(4-methoxymethoxystyryl)xanthine]",> 100
18,"CCCn1c(=O)c2c(nc(/C=C/c3ccc(O)c(O)c3)n2C)n(CCC)c1=O [Compound 54, (E)-8-(3,4-Dihydroxystyryl)-7-methyl-1,3-dipropylxanthine]",> 100
19,"CCCn1c(=O)c2c(nc(/C=C/c3ccc(OC)c(OC)c3)n2C)n(CCC)c1=S [Compound 72, (E)-8-(3,4-Dimethoxystyryl)-7-methyl-1,3-dipropyl-2-thioxanthine]",> 300
20,"CCn1c(=O)c2c(nc(/C=C/c3cc(OC)c(OC)cc3Br)n2C)n(CC)c1=O [Compound 118, (E)-8-(2-Bromo-4,5-dimethoxystyryl)-1,3-diethyl-7-methylxanthine]",> 100
21,"CCCn1c(=O)c2[nH]c(/C=C/c3ccc(OC)c(C)c3C)nc2n(CCC)c1=O [Compound 13, (E)-8-(4-Methoxy-2,3-dimethylstyryl)-1,3-dipropylxanthine]",> 300
22,"CCn1c(=O)c2[nH]c(/C=C/c3ccc(OC)c(OC)c3)nc2n(CC)c1=O [Compound 73, (E)-8-(3,4-Dimethoxystyryl)-1,3-diethylxanthine]",> 300
23,"CCCCOc1ccc(/C=C/c2nc3c(c(=O)n(CCC)c(=O)n3CCC)n2C)cc1 [Compound 53, (E)-8-(4-Butoxystyryl)-7-methyl-1,3-dipropylxanthine]",> 300
